According to patent US20040127511A1 (Pharmacia Corporation, priority 2002, published 2004):
Where a name gives a salt, the structure may show the parent alone. Read-outs that look alike come from different tables or passages of the source.

How the values were obtained:
[1] = tested on: LPS-induced TNFα production; assay: Rat LPS assay: Lipopolysaccharide (LPS)-Induced TNFα Production; format: in vivo; details: 20 mpk (IP); inhibition of serum TNFα vs vehicle
TNFα release, U937 cells = assay: U937 Cell TNFα Release Assay (LPS-stimulated, TNFα ELISA); format: cell-based; details: Homo sapiens, read-out: TNFα release assay IC50
Procedure: U937 Cell TNFα Release Assay
The human monocyte-like cell line, U937 (ATCC #CRL-1593.2), is cultured in RPMI1640 media with 10% heat-inactivated fetal calf serum (GIBCO), glutamine and pen/strep at 37° C. and 5% CO2. Differentiation of U937 to monocytic/macrophage-like cells is induced by the addition of phorbol12-myristate 13-acetate (Sigma) at final concentration of 20 ng/ml to a culture of U937 cells at ˜0.5 million cells/ml and incubated for 24 hrs. The cells are centrifuged, washed with PBS and resuspended in fresh media without PMA and incubated for 24 hrs. Cells adherent to the culture flask are harvested by scraping, centrifugation, and resuspended in fresh media to 2 million cells/ml, and 0.2 ml is aliquoted to each of 96 wells in flat-bottom plate. Cells are then incubated for an additional 24 hrs to allow for recovery. […]
ELISA plates (NUNC-Immuno™ Plate Maxisorb™ Surface) were coated with purified mouse monoclonal IgG1 anti-human TNFα antibody (R&D Systems #MAB610; 1.25 ug/ml in sodium bicarbonate pH 8.0, 0.1 ml/well) and incubated at 4° C. […] Enzymatic conversion of ABTS to colored product was measured after 5-30 minutes using a SpectroMax 340 spectrophotometer (Molecular Devices) at 405 nm. TNF levels were quantitated from a recombinant human TNFα (R&D Systems #210-TA-010) standard curve using a quadratic parameter fit generated by SoftMaxPRO software. […]

MAPKAPK2 = MAPKAPK2 (Homo sapiens, UniProt P49137); assay: biochemical; format: biochemical
Procedure: The phosphorylation of HSP-peptide ([sequence]) by MAPKAPK2 was measured using an anion exchange resin capture assay method. […] The reaction was terminated and [γ^33P]ATP was removed from solution by the addition of 150 μl of AG 1×8 ion exchange resin in 900 mM sodium formate pH 3.0. A 50 μl aliquot of head volume was removed from the quenched reaction mixture and added to a 96-well plate, 150 μl of Microscint-40 (Packard) was added and the amount of phosphorylated-peptide was determined.
Compounds are evaluated as potential inhibitors of the MK2 kinase by measuring their effects on MK2 phosphorylation of the peptide substrate. Compounds may be screened initially at two concentrations prior to determination of IC50 values. Screening results are expressed as percent inhibition at the concentrations of compound tested. For IC50 value determinations, compounds are tested at six concentrations in ten-fold serial dilutions with each concentration tested in triplicate. Results are expressed as IC50 values in micromolar. The assay is performed at a final concentration of 2% DMSO.

[2] = HSP-peptide substrate, 0.03 mM ATP, 2% DMSO, read-out: MK-2 Avg. IC50

MAPKAPK2, sequence (P49137 whole entry, species assumed): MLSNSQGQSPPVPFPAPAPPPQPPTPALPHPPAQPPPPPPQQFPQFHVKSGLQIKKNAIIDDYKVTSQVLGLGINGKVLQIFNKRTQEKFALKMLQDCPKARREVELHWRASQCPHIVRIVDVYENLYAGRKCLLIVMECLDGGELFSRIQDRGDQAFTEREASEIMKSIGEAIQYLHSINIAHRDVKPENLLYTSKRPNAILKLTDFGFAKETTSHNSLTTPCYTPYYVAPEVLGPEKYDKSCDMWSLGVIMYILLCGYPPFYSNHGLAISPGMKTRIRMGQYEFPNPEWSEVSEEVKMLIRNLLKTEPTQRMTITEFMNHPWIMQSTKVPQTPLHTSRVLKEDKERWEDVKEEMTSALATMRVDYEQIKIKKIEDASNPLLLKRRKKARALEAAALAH

| SMILES | IC50 (MAPKAPK2; [2]) | also measured |
| --- | --- | --- |
| N#Cc1c(N)nc2c(c1N)Cc1ccc(OCCN)cc1O2 [No. 19, 2,4-diamino-8-(2-aminoethoxy)-5H-chromeno[2,3-b]pyridine-3-carbonitrile hydrochloride] |  | Rat LPS Assay inhibition [1]: 88%; IC50 (TNFα release, U937 cells; U-937, 4 h): 6.9 µM |
| N#Cc1c(N)nc2c(c1N)Cc1ccc(OCCN3CCCC3)cc1O2.O=C(O)C(F)(F)F [No. 25, 2,4-diamino-8-(2-pyrrolidin-1-ylethoxy)-5H-chromeno[2,3-b]pyridine-3-carbonitrile] |  | Rat LPS Assay inhibition [1]: 60%; IC50 (TNFα release, U937 cells; U-937, differentiated U937 cells, LPS 100 ng/ml, 4 hrs): 2.9 µM |
| N#Cc1c(N)nc2c(c1N)Cc1ccc(OCCN3CCOCC3)cc1O2 [No. 28, trifluoroacetate] |  | IC50 (MAPKAPK2): 0.91 µM |
| Cc1ccc2c(c1)Oc1nc(N)c(C#N)c(N)c1C2 [No. 42, trifluoroacetate] | ≥ 200 µM |  |
| COc1cc(OC)c2c(c1)Oc1nc(N)c(C#N)c(N)c1C2 [No. 62, trifluoroacetate] | ≥ 200 µM |  |
| COc1cccc2c1Cc1c(nc(N)c(C#N)c1N)O2 [No. 70, trifluoroacetate] | ≥ 200 µM |  |
| N#Cc1c(N)nc2c(c1N)Cc1cc(OC(F)(F)F)ccc1O2 [No. 70, trifluoroacetate] | ≥ 200 µM |  |
| N#Cc1c(N)nc2c(c1N)Cc1cccc(C(=O)O)c1O2 [No. 81, trifluoroacetate] |  | IC50 (MAPKAPK2): ≥ 200 µM |
| N#Cc1c(N)nc2c(c1N)Cc1cccc(OCc3ccncc3)c1O2 [No. 83] | ≥ 200 µM |  |
| COc1cc2c(cc1OC)Oc1nc(N)c(C#N)c(NCCN3C(=O)c4ccccc4C3=O)c1C2 [No. 94] | ≥ 200 µM |  |
| CCNc1nc2c(c(NCC)c1C#N)Cc1cc(OC)c(OC)cc1O2 [No. 103, trifluoroacetate] | ≥ 200 µM |  |
